According to US10001469B2, “Use of GPR83 to identify pruritus-related substances” (University of Miyazaki, priority 2010, dated 2018):
Entries after “also recorded” stand apart in the source; their conditions may differ. Non-standard residues stand in square brackets, D forms with d. No end group written: not given here.

Key:
[1] = system: SP-induced scratching behavior; conditions: pre-administration, Non-patent Documents 7 and 8; cited from earlier work
[2] = system: HK-1-induced scratching behavior; conditions: pre-administration, Non-patent Documents 7 and 8; cited from earlier work
[3] = system: intrathecally catheterized rats; conditions: depending on the concentrations of peptides administered, Non-patent Document 7; cited from earlier work
[4] = system: thermal hyperalgesia; conditions: intrathecal administration; Non-patent Documents 7, 9, 10, 11; cited from earlier work
[5] = system: pain-related behavior; conditions: administered to a rat or a mouse; Non-patent Document 1; cited from earlier work
[6] = system: intrathecally catheterized rats; assay: Scratching behavior after intrathecal administration of the peptide alone; assay type: in vivo, rat; conditions: 10^−3 M (10 nmol/10 μl) intrathecal
Experimental: 10^−3 M (10 nmol/10 μl) HK-1 and SP, the N-terminal regions (nHK-1 and nSP), and the C-terminal regions (cHK-1 and cSP) were administered to intrathecally catheterized rats via catheters. Ethological changes beginning immediately after administration were evaluated using the number of scratching events during a 5-minute period after each peptide administration as an indicator. Here, the expression “10^−3 M (10 nmol/10 μl) . . . administered” refers to administration of 10 μl (full dose) of a solution containing 10 nmol of a peptide (e.g., nHK-1) (that is, a 10^−3 M solution). The same applies to the following similar expressions. […] In these graphs, the number of scratching events induced by administration of 10^−3 M (10 nmol/10 μl) SP or HK-1 alone is designated as a control, and is specifically designated as 100%.

[7] = system: SP-induced scratching behavior; assay: SP-induced scratching behavior after intrathecal pre-administration of peptide or siRNA; assay type: in vivo, rat
Experimental: In addition, the number of scratching events induced by SP administration at 5 minutes after saline administration was designated as a control, and was specifically designated as 100%.
In addition, the number of scratching events induced by SP administration at 5 minutes after saline administration was designated as a control and was specifically designated as 100%.
10^−3 M (10 nmol/10 μl) N-terminal regions (nSP and nHK-1) and the following peptides subjected to substitution were administered to intrathecally catheterized rats via catheters.
5 minutes after administration, the number of scratching events induced by administration of 10^−3 M (10 nmol/10 μl) SP was evaluated. In addition, the number of scratching events induced by administration of 10^−3 M SP at 5 minutes after saline administration was designated as a control and was specifically designated as 100%.
10^−3 M (10 nmol/10 μl) DTrp^2-nSP and DTrp^2-nHK-1 were administered to intrathecally catheterized rats via catheters, and then the number of scratching events induced by administration of 10^−3 M (10 nmol/10 μl) SP was evaluated. […] In addition, the number of scratching events induced by SP administration at 5 minutes after saline administration was designated as a control and was specifically designated as 100%.
siRNA was prepared using an HVJ Envelop Vector Kit (ISHIHARA SANGYO KAISHA, LTD) according to the protocols of the kit. 10 μl of an siRNA solution was administered to intrathecally catheterized rats via catheters. With administration of only HVJ-E and administration of mismatch siRNA as controls, time-course changes in scratching events resulting from SP or HK-1 were evaluated.
Next, NK1R siRNA was intrathecally administered and then SP was intrathecally administered on days 4, 7, 10, and 14. […] The number of SP-induced scratching events was gradually recovered after siRNA administration.

[8] = system: formalin-induced inflammatory pain; assay: Formalin-induced pain behavior (flinching) after intraplantar formalin; assay type: in vivo, rat; conditions: 10^−2 M (100 nmol/10 μl) peptide intrathecal 5 minutes before 2% formalin; for pain behavior (flinching events) during phase I: 0-10 minutes; for pain behavior (flinching events) during phase II: 10-60 minutes
Experimental: 10^−2 M (100 nmol/10 μl) nSP and nHK-1, or saline (10 μl) was administered to intrathecally catheterized rats via catheters, and then 5 minutes later, 50 μl of 2% formalin was administered subeutaneously to the hind paws of rats. The number of flinching events (pain behavior) was determined for a 60-minute period after formalin administration, so that the degree of pain was evaluated. During the 10-minute period after formalin administration (referred to as phase I), pain behavior was determined once every 2 minutes (1 minute per determination). During the period from 10 minutes to 60 minutes after formalin administration (referred to as phase 11), pain behavior was determined once every 5 minutes (1 minute per determination), so that the degree of pain was evaluated. During phase I, behavior (phasic pain) resulting from chemical stimulation accompanying formalin administration was observed. During phase II, […] following the phasic pain was observed.
The horizontal axis indicates time (minutes) after formalin administration and the vertical axis indicates the determined number of pain behavior events per minute.
4.5 mM (45 pmol/10 μl) GPR83 siRNA, 4.5 mM (45 pmol/10 μl) NK1R siRNA as target groups, 4.5 mM (45 pmol/10 μl) mismatch siRNA (MM siRNA: negative control), and 10 μl of HVJ-E (reagent for introduction of siRNA) were administered to intrathecally catheterized rats via catheters. On day 4 after administration, 50 μl of 2% formalin was administered subcutaneously to the hind paws of rats. The number of flinching events (pain behavior) was determined for a 60-minute period after formalin administration, so that the degree of pain was evaluated. During the 10-minute period after formalin administration (referred to as phase I), pain behavior was determined once every 2 minutes (1 minute per determination). During the period from 10 minutes to 60 minutes after formalin administration (referred to as phase II), pain behavior was determined once every 5 minutes (1 minute per determination), so that the degree of pain was evaluated. During phase I, behavior (phasic pain) resulting from chemical stimulation accompanying formalin administration was observed. During phase II, tonic pain following the phasic pain was observed.

[9] = system: SP-induced scratching behavior; assay: SP-induced scratching behavior after intrathecal pre-administration of peptide or siRNA; assay type: in vivo, rat; conditions: 5 minutes before SP
[10] = molecular target: NK1R (Homo sapiens, UniProt P25103); conditions: Non-patent Documents 4, 5, and 6; cited from earlier work
Chain of NK1R (P25103 whole entry, species assumed): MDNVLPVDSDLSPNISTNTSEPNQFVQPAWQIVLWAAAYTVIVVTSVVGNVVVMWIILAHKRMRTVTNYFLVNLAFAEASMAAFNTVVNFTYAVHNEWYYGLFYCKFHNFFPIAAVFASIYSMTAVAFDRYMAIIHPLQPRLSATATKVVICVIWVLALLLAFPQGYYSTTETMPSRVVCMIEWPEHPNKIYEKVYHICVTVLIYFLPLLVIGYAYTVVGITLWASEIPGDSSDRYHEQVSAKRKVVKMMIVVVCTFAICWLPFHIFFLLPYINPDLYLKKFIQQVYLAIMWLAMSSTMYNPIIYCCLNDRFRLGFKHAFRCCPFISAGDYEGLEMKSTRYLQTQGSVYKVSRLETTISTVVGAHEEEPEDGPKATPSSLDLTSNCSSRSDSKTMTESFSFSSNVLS

[11] = system: histamine-induced itching; assay: Histamine-induced itching behavior; assay type: in vivo, rat; conditions: for itching behavior resulting from histamine administration (scratching events, 20 minutes): 10^−2 M (100 nmol/10 μl) peptide intrathecal immediately before s.c. histamine, vs saline
Experimental: (§1) Immediately after intrathecal administration of 10^−2 M (100 nmol/10 μl) DTrp^2-nSP, DTrp^2-nHK-1, or saline (10 μl) to intrathecally catheterized rats via catheters, an itching inducer (10^−3 M histamine (0.25 mg/50 μl) or 1.13×10^−4 M 5-HT (0.25 mg/50 μl)) was subcutaneously administered to the nape of the neck, and then itching behavior was determined for 20 minutes, thereby evaluating the degree of itching.
(§2) FIG. 8 and FIG. 9 show itching behavior resulting from administration of histamine and 5-HT. The vertical axis indicates the determined number of scratching events for a 20-minute period after histamine and 5-HT administration. The horizontal axis indicates DTrp^2-nSP, DTrp^2-nHK-1, and saline administered.
(§3) 4.5 mM (45 pmol/10 μl) GPR83 siRNA, 4.5 mM (45 pmol/10 μl) NK1R siRNA as target groups, and 10 μl of HVJ-E (reagent for introduction of siRNA) were administered to intrathecally catheterized rats via catheters. On day 4 after administration, itching inducers (10^−3 M histamine (0.25 mg/50 μl) and 1.13×10^−4 M 5-HT (0.25 mg/50 μl)) were each subcutaneously administered to the nape of the neck, itching behavior was determined for a 20-minute period after administration, and thus the degree of itching was evaluated.
(§4) FIG. 15 and FIG. 16 show the results of observing itching behavior resulting from histamine administration and 5-HT administration. The vertical axis indicates the number of scratching events during a 20-minute period after administration of histamine and 5-HT, and the horizontal axis indicates HVJ-E (reagent for introduction of siRNA), GPR83 siRNA, and NK1R siRNA administered.

[12] = system: 5-HT-induced itching; assay: Serotonin (5-HT)-induced itching behavior; assay type: in vivo, rat; conditions: for itching behavior resulting from 5-HT administration (scratching events, 20 minutes): 10^−2 M (100 nmol/10 μl) peptide intrathecal immediately before s.c. 5-HT, vs saline
Experimental: as §1, §2, §3, §4

[13] = 10^−3 M (10 nmol/10 μl) peptide intrathecal, administration interval 5 minutes before 10^−3 M SP
[14] = 10^−3 M peptide intrathecal, administration interval 10 minutes
[15] = 10^−3 M peptide intrathecal, administration interval 15 minutes
[16] = assumed in view of Examples 1 to 5, not tested
[17] = 10^−3 M peptide intrathecal, administration interval 20 minutes
[18] = 10^−3 M peptide intrathecal, administration interval 30 minutes

What does the source list for `Ic1ccccc1CN[C@@H]1C2CCN(CC2)[C@@H]1C(c1ccccc1)c1ccccc1` (racemic) [L-703,606]?
suppression of SP-induced scratching behavior [1]: suppressed; suppression of HK-1-induced scratching behavior [2]: suppressed

What does the source list for “Arg-Pro-Lys-Pro-Gln-Gln-Phe-Phe-Gly-Leu-Met-NH2 (RPKPQQFFGLM-NH2; listed as Homo sapiens) [SP]”?
induction of scratching behavior by intrathecal administration [3]: induces scratching behavior; induction of thermal hyperalgesia [4]: induces thermal hyperalgesia; induction of pain-related behavior (e.g., scratching behavior) [5]: induces pain-related behavior

Which results are given for “Arg-Pro-Lys-Pro-Gln-NH2 (RPKPQ-NH2) [nSP]”?
scratching behavior on administration of the peptide alone (number of scratching events during a 5-minute period) [6]: no scratching behavior; suppression of the number of SP-induced scratching events [7, 13]: significantly suppress the number of scratching events; also recorded: an effect of suppressing the number of scratching events was exhibited significantly; also recorded: significant effects of suppressing SP-induced scratching behavior; suppression of the number of SP-induced scratching events [7, 14]: suppression effect was exhibited to a significant degree; suppression of the number of SP-induced scratching events [7, 15]: suppression effect disappeared; pain behavior (flinching events) during phase I [8]: pain behavior decreased significantly; pain behavior (flinching events) during phase II [8]: pain behavior decreased significantly; suppression of scratching behavior resulting from SP administration ([9]; 10^−4 M (1 nmol/10 μl) peptide intrathecal): suppressed scratching behavior resulting from SP administration; suppression of scratching behavior resulting from SP administration ([9]; 10^−5 M (100 pmol/10 μl) peptide intrathecal): suppressed scratching behavior resulting from SP administration

For “Arg-Ser-Arg-Thr-Arg-Gln-Phe-Tyr-Gly-Leu-Met-NH2 (RSRTRQFYGLM-NH2; listed as Homo sapiens) [HK-1]”, which “induction of scratching behavior by intrathecal administration” value [3] is on record?
The value was “induces scratching behavior”.

What about the “affinity for NK1R” value [10] of the same compound?
The value was “high affinity”.

What about the “induction of thermal hyperalgesia” value [4] of the same compound?
Its value is “no such reaction at all”.

For “Arg-Ser-Arg-Thr-Arg-NH2 (RSRTR-NH2) [nHK-1]”, which “scratching behavior on administration of the peptide alone (number of scratching events during a 5-minute period)” value [6] is on record?
The value was “no scratching behavior”.

What about the “suppression of the number of SP-induced scratching events” value [7, 13] of the same compound?
Its value is “significantly suppress the number of scratching events; also recorded: an effect of significantly suppressing scratching behavior; also recorded: significant effects of suppressing SP-induced scratching behavior”.

And the “suppression of the number of SP-induced scratching events” value [7, 14]?
Its value is “suppression effect was exhibited to a significant degree”.

What about the “suppression of the number of SP-induced scratching events” value [7, 15] of the same compound?
Its value is “suppression effect disappeared”.

And the “pain behavior (flinching events) during phase I” value [8]?
Its value is “pain behavior decreased significantly”.

And the “pain behavior (flinching events) during phase II” value [8]?
The value was “pain behavior decreased significantly”.

And the “suppression of histamine-induced itching (assumed)” value [11, 16]?
Its value is “suppresses”.

And the “suppression of 5-HT-induced itching (assumed)” value [12, 16]?
Its value is “suppresses”.

Which “suppression of the number of SP-induced scratching events” value [7, 13] does the source give for R[dW]KPQ-NH2 [DTrp^2-nSP] here?
The value was “significantly suppress the number of scratching events”.

What about the “suppression of the number of SP-induced scratching events” value [7, 17] of the same compound?
Its value is “suppression effect was significantly exhibited; also recorded: maintained significant suppression effects”.

What about the “suppression of the number of SP-induced scratching events” value [7, 18] of the same compound?
The value was “suppression effect disappeared”.

What about the “itching behavior resulting from histamine administration (scratching events, 20 minutes)” value [11] of the same compound?
The value was “no difference was found in itching behavior”.

What about the “itching behavior resulting from 5-HT administration (scratching events, 20 minutes)” value [12] of the same compound?
Its value is “no difference was found in the degree of itching behavior”.

Which results are given for R[dW]RTR-NH2 [DTrp^2-nHK-1]?
suppression of the number of SP-induced scratching events [7, 13]: significantly suppress the number of scratching events; suppression of the number of SP-induced scratching events [7, 17]: suppression effect was significantly exhibited; also recorded: maintained significant suppression effects; suppression of the number of SP-induced scratching events [7, 18]: suppression effect disappeared; itching behavior resulting from histamine administration (scratching events, 20 minutes) [11]: significantly lowered itching events; itching behavior resulting from 5-HT administration (scratching events, 20 minutes) [12]: significantly lowered the degree of itching behavior
